Measurements as given in ChEMBL document CHEMBL1136068 (Bioorg Med Chem Lett, 2003).

Tests used:
[1] = biological target: T1, Androgen receptor (Homo sapiens, UniProt P10275); experiment: Antagonist activity against Androgen receptor; not active; format: functional
T1 sequence (P10275 whole entry): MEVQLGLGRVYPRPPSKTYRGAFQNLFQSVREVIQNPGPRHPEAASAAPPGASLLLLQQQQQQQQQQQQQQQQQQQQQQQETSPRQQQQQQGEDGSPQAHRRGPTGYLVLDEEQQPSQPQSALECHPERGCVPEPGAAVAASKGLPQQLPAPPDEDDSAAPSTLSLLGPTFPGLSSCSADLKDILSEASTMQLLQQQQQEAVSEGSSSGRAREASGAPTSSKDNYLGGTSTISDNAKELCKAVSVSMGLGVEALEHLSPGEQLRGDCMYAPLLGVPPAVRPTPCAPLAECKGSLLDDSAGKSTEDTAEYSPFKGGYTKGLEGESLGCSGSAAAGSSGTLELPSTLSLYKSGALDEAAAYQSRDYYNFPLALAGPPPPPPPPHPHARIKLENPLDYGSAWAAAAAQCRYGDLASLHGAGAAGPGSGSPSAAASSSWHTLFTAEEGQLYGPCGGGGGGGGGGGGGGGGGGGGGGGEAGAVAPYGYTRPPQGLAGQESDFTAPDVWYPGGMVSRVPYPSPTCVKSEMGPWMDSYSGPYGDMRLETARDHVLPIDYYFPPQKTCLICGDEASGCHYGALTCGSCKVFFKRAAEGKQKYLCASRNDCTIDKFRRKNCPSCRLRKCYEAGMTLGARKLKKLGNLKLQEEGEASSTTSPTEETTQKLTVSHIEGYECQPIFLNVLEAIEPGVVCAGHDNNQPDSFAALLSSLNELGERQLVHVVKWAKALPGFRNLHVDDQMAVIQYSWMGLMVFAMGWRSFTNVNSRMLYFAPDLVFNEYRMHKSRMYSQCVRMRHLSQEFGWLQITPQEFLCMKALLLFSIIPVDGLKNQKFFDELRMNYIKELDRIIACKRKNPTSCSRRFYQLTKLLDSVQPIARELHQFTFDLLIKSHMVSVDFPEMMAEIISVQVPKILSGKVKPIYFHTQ

[2] = biological target: T2, Progesterone receptor (Homo sapiens, UniProt P06401); experiment: Binding affinity for human progesterone receptor; […]
T2 sequence (P06401 whole entry): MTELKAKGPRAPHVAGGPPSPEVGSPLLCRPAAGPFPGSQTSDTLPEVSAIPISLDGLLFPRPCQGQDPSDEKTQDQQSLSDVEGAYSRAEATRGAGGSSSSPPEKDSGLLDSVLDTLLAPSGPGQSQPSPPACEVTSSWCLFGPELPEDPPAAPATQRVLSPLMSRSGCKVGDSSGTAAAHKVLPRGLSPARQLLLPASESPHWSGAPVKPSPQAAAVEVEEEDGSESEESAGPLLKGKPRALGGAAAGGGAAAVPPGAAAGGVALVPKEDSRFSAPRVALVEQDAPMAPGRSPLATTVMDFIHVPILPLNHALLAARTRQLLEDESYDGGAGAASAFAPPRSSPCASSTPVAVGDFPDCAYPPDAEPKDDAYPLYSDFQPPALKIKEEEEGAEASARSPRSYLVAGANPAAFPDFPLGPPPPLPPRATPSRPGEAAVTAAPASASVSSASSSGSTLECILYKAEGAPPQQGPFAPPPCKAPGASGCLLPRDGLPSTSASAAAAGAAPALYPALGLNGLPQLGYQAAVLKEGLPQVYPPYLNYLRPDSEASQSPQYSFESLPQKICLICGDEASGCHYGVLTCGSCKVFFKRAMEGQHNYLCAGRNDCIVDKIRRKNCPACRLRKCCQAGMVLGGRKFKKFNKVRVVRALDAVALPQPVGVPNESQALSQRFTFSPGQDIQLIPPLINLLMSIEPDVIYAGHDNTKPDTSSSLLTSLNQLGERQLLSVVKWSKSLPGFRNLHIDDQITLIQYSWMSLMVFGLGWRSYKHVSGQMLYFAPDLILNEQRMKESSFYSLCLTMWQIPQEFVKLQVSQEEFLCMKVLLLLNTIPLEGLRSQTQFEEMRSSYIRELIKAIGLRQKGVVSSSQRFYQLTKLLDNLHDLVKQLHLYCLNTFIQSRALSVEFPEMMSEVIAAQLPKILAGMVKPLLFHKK

IC50 [1]: > 1000 nM
Ki [2]: 2.5 nM
SMILES: CC(C)=C/C=C1\Oc2ccc(F)cc2-c2ccc3c(c21)C(C)=CC(C)(C)N3
